Data published in patent US20250115597A1, “TYK2 INHIBITORS AND COMPOSITIONS AND METHODS THEREOF” (LYNK PHARMACEUTICALS CO. LTD., priority 2021, published 2025).
≈ marks a conversion by molar mass, not a printed value. Read-outs that look alike come from different tables or passages of the source.

Assays:
TYK2-JH2 domain = target: T1, TYK2-JH2 domain (Homo sapiens, UniProt P29597); test: Binding activity test for JH2 domain of TYK2 (Tb-antibody/tracer FRET); settings: for JAK1/TYK2 selectivity: ratio JAK1-JH2 IC50 / TYK2-JH2 IC50
T1 construct: IC50 on JH2 domain activity (nM)
How it was run: (§1)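 Compounds tested as 11-point 3-fold serial dilutions against the JH2 domain in a Tb-antibody/tracer FRET binding format. Plates incubated 60 min at 25° C, then overnight at 4° C, before FRET reading.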

JAK1-JH2 domain = target: T2, JAK1-JH2 domain (Homo sapiens, UniProt P23458); test: Binding activity test for JH2 domain of JAK1 (Tb-antibody/tracer FRET)
T2 construct: IC50 on JH2 domain activity (nM)
How it was run: as §1

[1] = target: T3, Ba/F3-FL-TYK2-P760L cells (Homo sapiens, UniProt P29597, P760L, cells depend on it); test: Anti-proliferative assay, Ba/F3-FL-TYK2-P760L cells (Cell-Titer Glo); format: cell-based; settings: 72 h, read-out: BaF3-FL-T2P760L IC50
T3 construct: BaF3-FL-T2P760L (nM)
How it was run: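 Ba/F3 cells made IL-3-independent by TEL-fused or full-length mutant JAK-family kinases, seeded at 2000/well and dosed after 24 h with 9 three-fold dilutions topping at 20 μM. Viability after 72 h at 37 °C, 5% CO2 by Cell-Titer Glo ATP luminescence.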

pSTAT1 = test: Phosphorylation inhibition of STAT in human whole blood, IFN-alpha stimulated (flow cytometry); format: cell-based; settings: 20 min; human whole blood, IFN-alpha 20 mins, CD3 cells; read-out: IC50 on pSTAT1 inhibition in h WB
How it was run: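 Freshly prepared PBMC or freshly collected whole blood stimulated with human Universal Type I IFN-alpha for 20 min, then fixed, permeabilized on ice and stained for CD3 and pSTAT1 (Y701). pSTAT1 read by flow cytometry; IC50 from 4-parameter logistic fit.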

[2] = Microsomal metabolic stability assay; format: in vitro ADME; settings: pH 7.4, 0.5 mg/mL protein, 1 μM compound
How it was run: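 Test article at 1 μM with 0.5 mg/mL microsomal protein and 2 mM NADPH, in 100 mM potassium phosphate pH 7.4 with 1.0 mM EDTA at 37 °C. Sampled at 0–45 min and quantified by LC/MS/MS. T1/2 from the slope of ln % remaining vs time.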

Kinetic solubility = format: physicochemical; settings: phosphate buffer, aqueous buffer, kinetic from dmso stock, PBS (pH 7.4), 1% DMSO, room temperature
Description: Aliquots of 8 μL of reference and test compound stock solutions (10 mM/5 mM) are added into 792 μL of 100 mM pH 7.4 phosphate buffer. The final DMSO concentration is 1%. Sample tubes are shaken for 2 hours at 1000 rpm at room temperature. Samples are centrifuged at 12000 rpm for 10 min to precipitate un-dissolved particles. And transfer the supernatants to a new tube or plate. Add 5 μL of samples (no diluted, 10 times diluted and 100 times diluted) and standard curve samples to 95 μL of ACN containing IS for LC-MS/MS analysis.

[3] = dog liver microsomes, read-out: Dog LM Clint
[4] = dog liver microsomes, read-out: Dog LM T½
[5] = human liver microsomes, read-out: Human LM Clint
[6] = human liver microsomes, read-out: Human LM T½
[7] = rat liver microsomes, read-out: Rat LM Clint
[8] = rat liver microsomes, read-out: Rat LM T½

T1 sequence (P29597 589-875 limits assumed): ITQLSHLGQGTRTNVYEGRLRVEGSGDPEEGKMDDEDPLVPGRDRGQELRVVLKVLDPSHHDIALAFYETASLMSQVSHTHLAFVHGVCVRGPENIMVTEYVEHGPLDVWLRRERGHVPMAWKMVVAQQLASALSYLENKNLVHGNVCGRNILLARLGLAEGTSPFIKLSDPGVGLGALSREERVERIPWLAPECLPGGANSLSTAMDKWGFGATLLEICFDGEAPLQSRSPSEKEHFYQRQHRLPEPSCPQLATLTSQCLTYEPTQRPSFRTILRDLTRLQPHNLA
T2 sequence (P23458 583-855 limits assumed): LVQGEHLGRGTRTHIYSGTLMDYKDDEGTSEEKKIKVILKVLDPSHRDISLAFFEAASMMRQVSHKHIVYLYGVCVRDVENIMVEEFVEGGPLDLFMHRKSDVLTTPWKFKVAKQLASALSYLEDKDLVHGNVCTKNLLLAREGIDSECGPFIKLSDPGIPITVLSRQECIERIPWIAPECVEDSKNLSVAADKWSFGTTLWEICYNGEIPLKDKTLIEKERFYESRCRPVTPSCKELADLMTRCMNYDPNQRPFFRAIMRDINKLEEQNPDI
T3 sequence (P29597 whole entry P760L): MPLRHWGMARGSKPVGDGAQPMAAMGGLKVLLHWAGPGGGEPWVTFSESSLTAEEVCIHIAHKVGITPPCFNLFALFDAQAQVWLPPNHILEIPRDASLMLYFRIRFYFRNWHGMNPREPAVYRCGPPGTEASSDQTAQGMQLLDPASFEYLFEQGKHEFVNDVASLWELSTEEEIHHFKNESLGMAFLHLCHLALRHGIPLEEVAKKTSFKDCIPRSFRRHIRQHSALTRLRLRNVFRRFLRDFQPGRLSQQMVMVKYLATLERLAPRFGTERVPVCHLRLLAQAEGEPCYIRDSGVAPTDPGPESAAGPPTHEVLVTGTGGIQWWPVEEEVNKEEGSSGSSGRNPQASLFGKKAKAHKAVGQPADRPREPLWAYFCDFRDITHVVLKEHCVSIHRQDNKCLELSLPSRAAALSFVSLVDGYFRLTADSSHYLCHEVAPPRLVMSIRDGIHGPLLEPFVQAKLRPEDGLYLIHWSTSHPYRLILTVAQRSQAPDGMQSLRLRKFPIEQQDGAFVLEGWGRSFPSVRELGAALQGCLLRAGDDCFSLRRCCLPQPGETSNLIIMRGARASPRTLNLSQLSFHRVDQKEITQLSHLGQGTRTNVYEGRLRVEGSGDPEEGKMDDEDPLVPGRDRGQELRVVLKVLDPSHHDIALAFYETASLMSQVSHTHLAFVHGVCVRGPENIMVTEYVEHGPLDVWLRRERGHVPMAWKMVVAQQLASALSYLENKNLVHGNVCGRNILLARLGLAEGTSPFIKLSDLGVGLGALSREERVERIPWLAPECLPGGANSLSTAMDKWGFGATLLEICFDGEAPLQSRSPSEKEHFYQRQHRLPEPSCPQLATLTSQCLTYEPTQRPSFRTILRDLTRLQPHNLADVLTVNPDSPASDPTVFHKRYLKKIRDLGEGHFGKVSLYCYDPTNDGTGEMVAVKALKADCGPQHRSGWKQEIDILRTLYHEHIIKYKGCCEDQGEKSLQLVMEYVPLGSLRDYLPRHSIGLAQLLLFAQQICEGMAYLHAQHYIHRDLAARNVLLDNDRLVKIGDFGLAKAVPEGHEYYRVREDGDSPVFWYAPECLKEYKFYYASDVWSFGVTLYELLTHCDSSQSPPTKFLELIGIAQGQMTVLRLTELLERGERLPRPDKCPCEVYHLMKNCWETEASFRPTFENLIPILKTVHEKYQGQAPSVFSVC

| SMILES | IC50 (TYK2-JH2 domain) | JAK1/TYK2 selectivity (TYK2-JH2 domain) | IC50 (JAK1-JH2 domain) | GI50 [1] | IC50 (pSTAT1) | microsomal CLint at 1 μM [2, 3] | half-life at 1 μM [2, 4] | microsomal CLint at 1 μM [2, 5] | half-life at 1 μM [2, 6] | microsomal CLint at 1 μM [2, 7] | half-life at 1 μM [2, 8] | solubility at 2 h (Kinetic solubility) |
| --- | --- | --- | --- | --- | --- | --- | --- | --- | --- | --- | --- | --- |
| [2H]C([2H])([2H])NC(=O)c1cnc(NC(=O)C2CC2)cc1Nc1ccc2cnn(CC(F)(F)F)c2c1OC [Example 129, 6-(Cyclopropanecarboxamido)-4-((7-methoxy-1-(2,2,2-trifluoroethyl)-1H-indazol-6-yl)amino)-N-(methyl-d3)nicotinamide] | 0.000416 µM | 49.9 | 0.0208 µM | 0.0693 µM | 0.395 µM | 48.6 µL/min/mg | 28.5 min | 40 µL/min/mg | 34.6 min | 87.4 µL/min/mg | 15.9 min | 13.6 µM (≈ 6.33 µg/mL) |
| [2H]C([2H])([2H])NC(=O)c1cnc(Nc2ccc(F)cn2)cc1Nc1nn(C)c2ccn(CC)c(=O)c12 [Example 139, 4-((5-Ethyl-1-methyl-4-oxo-4,5-dihydro-1H-pyrazolo[4,3-c]pyridin-3-yl)amino)-6-((5-fluoropyridin-2-yl)amino)-N-(methyl-d3)nicotinamide] | 0.000524 µM | 23.6 | 0.0124 µM | 0.0331 µM | 1.18 µM | – | – | 23.3 µL/min/mg | 59.8 min | – | – | – |
| [2H]C([2H])([2H])NC(=O)c1cnc(NC(=O)C2CC2)cc1Nc1ccc2cnn(CC)c2c1OC [Example 44, 6-(Cyclopropanecarboxamido)-4-((1-ethyl-7-methoxy-1H-indazol-6-yl)amino)-N-(methyl-d3)nicotinamide] | 0.000286 µM | 34.6 | 0.00989 µM | 0.0562 µM | 0.219 µM | 66.8 µL/min/mg | 20.7 min | 19.4 µL/min/mg | 71.5 min | 111 µL/min/mg | 12.5 min | 38.7 µM (≈ 15.9 µg/mL) |

Second part, the molecule after the results:

| IC50 (TYK2-JH2 domain) | JAK1/TYK2 selectivity (TYK2-JH2 domain) | IC50 (JAK1-JH2 domain) | GI50 [1] | IC50 (pSTAT1) | microsomal CLint at 1 μM [2, 3] | half-life at 1 μM [2, 4] | microsomal CLint at 1 μM [2, 5] | half-life at 1 μM [2, 6] | microsomal CLint at 1 μM [2, 7] | half-life at 1 μM [2, 8] | solubility at 2 h (Kinetic solubility) | SMILES |
| --- | --- | --- | --- | --- | --- | --- | --- | --- | --- | --- | --- | --- |
| 0.000278 µM | 67.0 | 0.0186 µM | 0.0982 µM | 0.284 µM | 14.3 µL/min/mg | 99.7 min | 36.9 µL/min/mg | 38 min | 43.6 µL/min/mg | 32 min | – | [2H]C([2H])([2H])NC(=O)c1cnc(NC(=O)C2CC2)cc1Nc1ccn2ncc(C#N)c2c1OC [Example 165, 4-((3-Cyano-4-methoxypyrazolo[1,5-a]pyridin-5-yl)amino)-6-(cyclopropanecarboxamido)-N-(methyl-d3)nicotinamide] |
| 0.00022 µM | 67.1 | 0.0148 µM | 0.0416 µM | 0.102 µM | – | – | – | – | – | – | 17.6 µM (≈ 7.28 µg/mL) | [2H]C([2H])([2H])NC(=O)c1cnc(NC(=O)C2CC2)cc1Nc1ncc2cnn(CC)c2c1OC [Example 262, 6-(Cyclopropanecarboxamido)-4-((1-ethyl-7-methoxy-1H-pyrazolo[4,3-c]pyridin-6-yl)amino)-N-(methyl-d3)nicotinamide] |
